Test results published in patent publication US20240148821A1, “PHARMACEUTICAL USE OF CYCLIC PEPTIDE COMPOUND” (CHUGAI SEIYAKU KABUSHIKI KAISHA, priority 2021, published 2024).
Numbered stars: 1 amine (or outer) side, 2 acyl side, 3 side chain; on linkers, the order of the positions; unused ones are H or OH. Bridge positions count the residues as written; N and C are the ends. Square brackets hold non-standard residues; d marks the D form. Peptide text beside a SMILES is read from it. * marks the point of attachment. hPhe(3-Cl-4-CF3) = N[C@@H](CCc1ccc(C(F)(F)F)c(Cl)c1)C(=O)O; X13 = O=C([C@H](CCc1ccc(OC(F)(F)F)c(Cl)c1)N[*:1])[*:2]; NEtPhe(4-CF3) = CCN[C@@H](Cc1ccc(C(F)(F)F)cc1)C(=O)O; NMePhe(4-CF3) = CN[C@@H](Cc1ccc(C(F)(F)F)cc1)C(=O)O; X6 = O=C([C@H](CCc1ccc2c(c1)OC(F)(F)O2)N[*:1])[*:2]; Pro(cis-4-Ph) = O=C(O)[C@@H]1C[C@H](c2ccccc2)CN1; NMePhe(4-Cl) = CN[C@@H](Cc1ccc(Cl)cc1)C(=O)O; NEtPhe(2-Cl) = CCN[C@@H](Cc1ccccc1Cl)C(=O)O; NMePhe(4-Me) = CN[C@@H](Cc1ccc(C)cc1)C(=O)O; NMedβ3hAla = C[C@H](CC(=O)[*:2])N(C)[*:1]; hPhe(4-F) = N[C@@H](CCc1ccc(F)cc1)C(=O)O; NMeGly(cPent) = CN[C@H](C(=O)O)C1CCCC1; Pro(4,4-F2) = O=C(O)[C@@H]1CC(F)(F)CN1; NMeAla(cPr) = CN[C@@H](CC1CC1)C(=O)O; NMeGly(cBu) = CN[C@H](C(=O)O)C1CCC1; NMeCha = CN[C@@H](CC1CCCCC1)C(=O)O; Hyp = O=C(O)[C@@H]1C[C@@H](O)CN1; NMeCba = CN[C@@H](CC1CCC1)C(=O)O; NMeChg = CN[C@H](C(=O)O)C1CCCCC1; NMeI = CC[C@H](C)[C@H](NC)C(=O)O; N(CH2CH2)2CF2 = FC1(F)CCN(*)CC1; NMeD = CN[C@@H](CC(=O)O)C(=O)O; NMeL = CN[C@@H](CC(C)C)C(=O)O; NMeV = CN[C@H](C(=O)O)C(C)C; d(β3hA) = C[C@@H](N)CC(=O)O; NPhGly = O=C(O)CNc1ccccc1; NMeA = CN[C@@H](C)C(=O)O; NMeAib = CNC(C)(C)C(=O)O; Piperidide = C1CCN(*)CC1; dNMeA = CN[C@H](C)C(=O)O; Ac5c = NC1(C(=O)O)CCCC1; Aze = O=C(O)[C@@H]1CCN1; Ac4c = NC1(C(=O)O)CCC1; Sar = CNCC(=O)O

Target: protein-protein interaction between Kras and SOS1 (biotin-tagged human Kras loaded with GDP, His-tagged human SOS1) (Homo sapiens (Human), UniProt P01116, G12D)
Experiment: Protein-protein interaction inhibition between Kras and SOS1 (KrasG12D-SOS PPI) using AlphaScreen;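 note: kras produced in E. coli, Ni-coupled donor beads and streptavidin acceptor beads, excitation 680 nm with emission detected at 520–620 nm via singlet oxygen transfer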
Format: biochemical
Settings: AlphaScreen; biotin-tagged human Kras loaded with GDP, His-tagged human SOS1; read-out: KRAS G12D-SOS PPI IC50

| SMILES | IC50 [nM] |
| --- | --- |
| CC[C@H](C)[C@@H]1NC(=O)[C@H](C)N(C)C(=O)C[C@@H](C(=O)N2CCCCC2)N(C)C(=O)[C@H](C(C)C)N(C)C(=O)C2(CCCC2)NC(=O)[C@H](Cc2ccccc2Cl)N(CC)C(=O)[C@H](CCc2ccc(C(F)(F)F)c(Cl)c2)NC(=O)CN(C)C(=O)[C@H](CC2CCCCC2)N(C)C(=O)CN(C)C(=O)CN(C)C1=O [Compound 2161, (8S,11S,17S,26S,29S,33S,36S)-8-[(2-chlorophenyl)methyl]-11-[2-[3-chloro-4-(trifluoromethyl)phenyl]ethyl]-17-(cyclohexylmethyl)-9-ethyl-36-isopropyl-15,18,21,24,29,30,34,37-octamethyl-26-[(1S)-1-methylpropyl]-33-(piperidine-1-carbonyl)-6,9,12,15,18,21,24,27,30,34,37-undecazaspiro[4.33]octatriacontane-7,10,13,16,19,22,25,28,31,35,38-undecone] ([NMeA]I[Sar][Sar][NMeCha][Sar][hPhe(3-Cl-4-CF3)][NEtPhe(2-Cl)][Ac5c][NMeV][NMeD]-Piperidide; lactam N-11) | 480 |
| CC[C@H](C)[C@@H]1NC(=O)[C@H](CC(C)C)N(C)C(=O)C[C@@H](C(=O)N2CCCCC2)N(C)C(=O)[C@H](C2CCCC2)N(C)C(=O)C2(CCCC2)NC(=O)[C@@H]2CCCN2C(=O)[C@H](CCc2ccc(OC(F)(F)F)c(Cl)c2)NC(=O)CN(C)C(=O)[C@H](CC2CCCCC2)N(C)C(=O)[C@@H]2CCN2C(=O)[C@H](C)N(C)C1=O [Compound 2057] ([NMeL]I[NMeA][Aze][NMeCha][Sar][X13]P[Ac5c][NMeGly(cPent)][NMeD]-Piperidide; lactam N-11 (inferred); C-terminus assumed) | 1.1 |
| CC[C@H](C)[C@@H]1NC(=O)[C@H](C)N(C)C(=O)C[C@@H](C)N(C)C(=O)[C@H](CC(C)C)NC(=O)C(C)(C)N(C)C(=O)[C@H](CC(C)C)NC(=O)[C@H](CCc2ccc(C(F)(F)F)c(Cl)c2)NC(=O)[C@@H](C)N(C)C(=O)[C@H](CC2CCCCC2)N(C)C(=O)CN(C)C(=O)CN(C)C1=O [Compound 1390] (cyclo(I[Sar][Sar][NMeCha][dNMeA][hPhe(3-Cl-4-CF3)]L[NMeAib]L[NMedβ3hAla][NMeA])) | 280 |
| CC[C@H](C)[C@@H]1NC(=O)[C@H](C)N(C)C(=O)C[C@@H](C)N(C)C(=O)[C@H](CC2CCC2)N(C)C(=O)C(C)(C)N(C)C(=O)[C@@H]2CCCN2C(=O)[C@H](CCc2ccc(C(F)(F)F)c(Cl)c2)NC(=O)CN(C)C(=O)[C@H](CC2CCCCC2)N(C)C(=O)[C@@H]2CCN2C(=O)[C@H](C)N(C)C1=O [Compound 2152] (cyclo([Aze][NMeCha][Sar][hPhe(3-Cl-4-CF3)]P[NMeAib][NMeCba][NMedβ3hAla][NMeA]I[NMeA])) | 71 |
| CC[C@H](C)[C@@H]1NC(=O)[C@H](C)N(C)C(=O)C[C@@H](C)NC(=O)[C@H](C2CCCC2)N(C)C(=O)C2(CCCC2)NC(=O)[C@@H]2CCCN2C(=O)[C@H](CCc2ccc(C(F)(F)F)c(Cl)c2)NC(=O)[C@H]2CCCN2C(=O)[C@H](Cc2ccc(C(F)(F)F)cc2)N(C)C(=O)CN(C)C(=O)CN(C)C1=O [Compound 1470] (cyclo([Ac5c][NMeGly(cPent)][d(β3hA)][NMeA]I[Sar][Sar][NMePhe(4-CF3)][dP][hPhe(3-Cl-4-CF3)]P)) | 210 |
| CC[C@H](C)[C@@H]1NC(=O)[C@H](C)N(C)C(=O)C[C@@H](C)N(C)C(=O)[C@H](C2CCC2)N(C)C(=O)C(C)(C)N(C)C(=O)CN(c2ccccc2)C(=O)[C@H](CCc2ccc(C(F)(F)F)c(Cl)c2)NC(=O)CN(C)C(=O)[C@H](C2CCC2)N(C)C(=O)[C@@H]2CCN2C(=O)[C@H](C)N(C)C1=O [Compound 2148] (cyclo([Aze][NMeGly(cBu)][Sar][hPhe(3-Cl-4-CF3)][NPhGly][NMeAib][NMeGly(cBu)][NMedβ3hAla][NMeA]I[NMeA])) | 63 |
| CC[C@H](C)[C@@H]1NC(=O)[C@H](C)N(C)C(=O)C[C@@H](C(=O)N2CCCCC2)N(C)C(=O)[C@H](C(C)C)N(C)C(=O)C2(CCCC2)NC(=O)[C@@H]2CCCN2C(=O)[C@H](CCc2ccc(F)cc2)NC(=O)CN(C)C(=O)[C@H](CC2CCCCC2)N(C)C(=O)[C@@H]2CCN2C(=O)[C@H](C)N(C)C1=O [Compound 860] ([NMeA]I[NMeA][Aze][NMeCha][Sar][hPhe(4-F)]P[Ac5c][NMeV][NMeD]-Piperidide; lactam N-11) | 210 |
| CC[C@H](C)[C@@H]1NC(=O)[C@H](CC(C)C)N(C)C(=O)C[C@@H](C)NC(=O)[C@H](C(C)C)N(C)C(=O)C2(CCCC2)NC(=O)[C@@H]2CCCN2C(=O)[C@H](CCc2ccc(C(F)(F)F)c(Cl)c2)NC(=O)CN(C)C(=O)[C@H](Cc2ccc(Cl)cc2)N(C)C(=O)[C@@H]2CCN2C(=O)CN(C)C1=O [Compound 207] (cyclo([Ac5c][NMeV][d(β3hA)][NMeL]I[Sar][Aze][NMePhe(4-Cl)][Sar][hPhe(3-Cl-4-CF3)]P)) | 3 |
| CC[C@H](C)[C@@H]1NC(=O)[C@H](CC(C)C)N(C)C(=O)C[C@@H](C(=O)N2CCCCC2)N(C)C(=O)[C@H](C2CCCCC2)N(C)C(=O)C2(CCCC2)NC(=O)[C@@H]2C[C@H](c3ccccc3)CN2C(=O)[C@H](CCc2ccc(C(F)(F)F)c(Cl)c2)NC(=O)CN(C)C(=O)[C@H](CC2CCCCC2)N(C)C(=O)CN(C)C(=O)CN(C)C1=O [Compound 428] ([NMeL]I[Sar][Sar][NMeCha][Sar][hPhe(3-Cl-4-CF3)][Pro(cis-4-Ph)][Ac5c][NMeChg][NMeD]-Piperidide; lactam N-11) | 9.1 |
| CC[C@H](C)[C@@H]1NC(=O)[C@H](CC(C)C)N(C)C(=O)C[C@@H](C(=O)N2CCCCC2)N(C)C(=O)[C@H]([C@@H](C)CC)N(C)C(=O)C2(CCCC2)NC(=O)[C@@H]2CCCN2C(=O)[C@H](CCc2ccc(C(F)(F)F)c(Cl)c2)NC(=O)CN(C)C(=O)[C@H](Cc2ccc(C)cc2)N(C)C(=O)[C@@H]2CCN2C(=O)[C@H](C)N(C)C1=O [Compound 1727] ([NMeL]I[NMeA][Aze][NMePhe(4-Me)][Sar][hPhe(3-Cl-4-CF3)]P[Ac5c][NMeI][NMeD]-Piperidide; lactam N-11) | 1.2 |
| CC[C@H](C)[C@@H]1NC(=O)[C@H](CC(C)C)N(C)C(=O)C[C@@H](C)N(C)C(=O)[C@H](C2CCCCC2)N(C)C(=O)C2(CCC2)NC(=O)[C@@H]2CC(F)(F)CN2C(=O)[C@H](CCc2ccc(C(F)(F)F)c(Cl)c2)NC(=O)CN(C)C(=O)[C@H](Cc2ccc(C(F)(F)F)cc2)N(CC)C(=O)[C@@H]2CCN2C(=O)[C@H](C)N(C)C1=O [Compound 345] (cyclo([Ac4c][NMeChg][NMedβ3hAla][NMeL]I[NMeA][Aze][NEtPhe(4-CF3)][Sar][hPhe(3-Cl-4-CF3)][Pro(4,4-F2)])) | 58 |
| CC[C@H](C)[C@@H]1NC(=O)[C@H](CC(C)C)N(C)C(=O)C[C@@H](C)NC(=O)[C@H]([C@@H](C)CC)N(C)C(=O)C2(CCCC2)NC(=O)[C@@H]2CCCN2C(=O)[C@H](CCc2ccc(C(F)(F)F)c(Cl)c2)NC(=O)CN(C)C(=O)[C@H](CC2CCCCC2)N(C)C(=O)[C@@H]2CCN2C(=O)[C@H](C)N(C)C1=O [Compound 1654] (cyclo([Ac5c][NMeI][d(β3hA)][NMeL]I[NMeA][Aze][NMeCha][Sar][hPhe(3-Cl-4-CF3)]P)) | 22 |
| CCO[C@@H]1C[C@H]2C(=O)NC3(CCC3)C(=O)N(C)[C@@H](C3CCCCC3)C(=O)N(C)[C@H](C)CC(=O)N(C)[C@@H](CC(C)C)C(=O)N[C@@H]([C@@H](C)CC)C(=O)N(C)[C@@H](C)C(=O)N3CC[C@H]3C(=O)N(CC)[C@@H](Cc3ccc(C(F)(F)F)cc3)C(=O)N(C)CC(=O)N[C@@H](CCc3ccc(C(F)(F)F)c(Cl)c3)C(=O)N2C1 [Compound 296] (cyclo([Ac4c][NMeChg][NMedβ3hAla][NMeL]I[NMeA][Aze][NEtPhe(4-CF3)][Sar][hPhe(3-Cl-4-CF3)][Hyp](Et))) | 55 |
| CC[C@H](C)[C@@H]1NC(=O)[C@H](CC(C)C)N(C)C(=O)C[C@@H](C(=O)N2CCCCC2)NC(=O)[C@H](C(C)C)N(C)C(=O)C2(CCCC2)NC(=O)[C@H](CC(=O)N2CCC(F)(F)CC2)N(C)C(=O)[C@H](CCc2ccc(C(F)(F)F)c(Cl)c2)NC(=O)CN(C)C(=O)[C@H](CC2CCCCC2)N(C)C(=O)CN(C)C(=O)CN(C)C1=O [Compound 3] ([NMeL]I[Sar][Sar][NMeCha][Sar][hPhe(3-Cl-4-CF3)][NMeD](N(CH2CH2)2CF2)[Ac5c][NMeV]D-Piperidide; lactam N-11) | 310 |
| CC[C@H](C)[C@@H]1NC(=O)[C@H](CC(C)C)N(C)C(=O)C[C@@H](C)N(C)C(=O)[C@H](C2CCCCC2)N(C)C(=O)C2(CCCC2)NC(=O)[C@@H]2CC(F)(F)CN2C(=O)[C@H](CCc2ccc(C(F)(F)F)c(Cl)c2)NC(=O)CN(C)C(=O)[C@H](Cc2ccc(C(F)(F)F)cc2)N(C)C(=O)[C@@H]2CCN2C(=O)[C@H](C)N(C)C1=O [Compound 319] (cyclo([Ac5c][NMeChg][NMedβ3hAla][NMeL]I[NMeA][Aze][NMePhe(4-CF3)][Sar][hPhe(3-Cl-4-CF3)][Pro(4,4-F2)])) | 8.2 |
| CC[C@H](C)[C@@H]1NC(=O)[C@H](CC(C)C)N(C)C(=O)C[C@@H](C(=O)N2CCCCC2)N(C)C(=O)[C@H](C2CCCC2)N(C)C(=O)C2(CCCC2)NC(=O)[C@@H]2CCCN2C(=O)[C@H](CCc2ccc3c(c2)OC(F)(F)O3)NC(=O)CN(C)C(=O)[C@H](CC2CCCCC2)N(C)C(=O)[C@@H]2CCN2C(=O)[C@H](C)N(C)C1=O [Compound 2074] ([NMeL]I[NMeA][Aze][NMeCha][Sar][X6]P[Ac5c][NMeGly(cPent)][NMeD]-Piperidide; lactam N-11 (inferred); C-terminus assumed) | 2.7 |
| CC[C@H](C)[C@@H]1NC(=O)[C@H](CC2CC2)N(C)C(=O)C[C@@H](C)NC(=O)[C@H](C(C)C)N(C)C(=O)C2(CCCC2)NC(=O)[C@@H]2CCCN2C(=O)[C@H](CCc2ccc(C(F)(F)F)c(Cl)c2)NC(=O)CN(C)C(=O)[C@H](CC2CCCCC2)N(C)C(=O)[C@@H]2CCN2C(=O)[C@H](C)N(C)C1=O [Compound 771] (cyclo([Ac5c][NMeV][d(β3hA)][NMeAla(cPr)]I[NMeA][Aze][NMeCha][Sar][hPhe(3-Cl-4-CF3)]P)) | 25 |
